Experimental findings from patent publication US20250215029A1 (Recludix Pharma, Inc., priority 2022, published 2025) are described below.

For orientation: IC50 means the concentration that gives 50% inhibition.

The target in assay [1] is T1, Recombinant STAT3 protein (STAT3 (G127-I722)) (Homo sapiens, UniProt P40763).
T1 construct: Recombinant STAT3 protein (STAT3 (G127-I722))
Nature of the assay: STAT3 Fluorescence Polarization (FP) Assay. The note with it: probe 5-FAM-GpYLPQTV-NH2 2 nM, 45-minute incubation. It counts as binding. Summed up: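 Displacement of a fluorescent phosphotyrosine peptide (5-FAM-GpYLPQTV-NH2, 2 nM) from 25 nM recombinant STAT3 G127-I722 was monitored by FP after 45 min at room temperature.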
In general terms: In fluorescence polarisation assays a small probe gives low polarisation when free and higher when bound to something large.

The target in assay [2] is T2, Recombinant STAT6 protein (STAT6 (W123-T658)) (Homo sapiens, UniProt P42226).
T2 construct: Recombinant STAT6 protein (STAT6 (W123-T658))
T2 sequence (P42226 123-658): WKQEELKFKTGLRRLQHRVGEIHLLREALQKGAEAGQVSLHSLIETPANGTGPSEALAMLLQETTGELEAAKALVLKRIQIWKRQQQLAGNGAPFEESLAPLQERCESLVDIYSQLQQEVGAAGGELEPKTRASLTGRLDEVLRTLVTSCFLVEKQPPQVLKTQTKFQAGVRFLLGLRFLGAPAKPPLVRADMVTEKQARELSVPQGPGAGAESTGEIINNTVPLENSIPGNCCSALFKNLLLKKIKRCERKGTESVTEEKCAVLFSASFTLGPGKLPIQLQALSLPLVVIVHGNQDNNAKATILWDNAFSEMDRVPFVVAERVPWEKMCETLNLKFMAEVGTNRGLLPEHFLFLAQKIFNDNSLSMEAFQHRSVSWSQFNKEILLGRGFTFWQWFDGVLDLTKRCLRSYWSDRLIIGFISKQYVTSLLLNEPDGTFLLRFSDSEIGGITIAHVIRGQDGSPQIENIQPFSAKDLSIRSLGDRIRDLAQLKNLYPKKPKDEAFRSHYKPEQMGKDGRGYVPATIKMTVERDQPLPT
The assay is described as follows: STAT6 Fluorescence Polarization (FP) Assay. It is filed as binding. The note with it: 45-minute incubation. An outline of the steps:
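Protein-probe mix (250 nM STAT6 W123-T658, 2 nM 5-FAM-pTyr peptide) in 10 mM HEPES pH 7.4, 50 mM NaCl, 1 mM EDTA, 0.05% Tween 20, 2 mM DTT; added to compound dilution series, 1% DMSO final; 45 min RT; FP read; IC50 via nonlinear regression.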

Setting [3] is: STAT3 (G127-I722) 25 nM, read-out: STAT3 (FP assay IC50 class).
Where [4] appears, read: STAT6 (W123-T658) 250 nM, probe 5-FAM-Ap[…]-NH2 2 nM, read-out: STAT6 (FP assay IC50 class).
The mark [5] stands for this setting: STAT3 25 nM, read-out: STAT3 (FP assay IC50).
Setting [6] is: STAT6 250 nM, probe 5-FAM-Ap[…]-NH2 2 nM, read-out: STAT6 (FP assay IC50).

Read-outs that look alike come from different tables or passages of the source.

T1 sequence (P40763 127-722): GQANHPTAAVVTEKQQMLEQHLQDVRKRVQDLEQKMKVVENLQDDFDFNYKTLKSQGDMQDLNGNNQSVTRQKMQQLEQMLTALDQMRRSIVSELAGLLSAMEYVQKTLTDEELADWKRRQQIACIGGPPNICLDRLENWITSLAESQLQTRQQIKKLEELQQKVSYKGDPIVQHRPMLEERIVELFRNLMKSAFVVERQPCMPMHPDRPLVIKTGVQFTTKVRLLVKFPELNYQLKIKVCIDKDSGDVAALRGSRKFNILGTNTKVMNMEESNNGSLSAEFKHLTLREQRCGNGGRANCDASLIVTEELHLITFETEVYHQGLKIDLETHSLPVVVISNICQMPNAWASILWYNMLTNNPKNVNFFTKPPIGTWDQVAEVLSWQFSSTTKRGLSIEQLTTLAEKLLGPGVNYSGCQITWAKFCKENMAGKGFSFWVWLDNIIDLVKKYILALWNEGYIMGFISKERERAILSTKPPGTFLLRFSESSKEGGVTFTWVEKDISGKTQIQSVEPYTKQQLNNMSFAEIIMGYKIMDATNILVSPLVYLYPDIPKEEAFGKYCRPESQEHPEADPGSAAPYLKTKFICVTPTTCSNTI

Take `Cc1ccncc1C1CN(C(=O)[C@@H]2CC[C@@H]3CCC[C@H](NC(=O)c4cc5cc(CP(=O)(O)O)ccc5s4)C(=O)N32)C1` [Compound 214, ((2-(((3S,6S,9aS)-3-(3-(4-methylpyridin-3-yl)azetidine-1-carbonyl)-5-oxooctahydro-1H-pyrrolo[1,2-a]azepin-6-yl)carbamoyl)benzo[b]thiophen-5-yl)methyl)phosphonic acid]: the IC50 in assay [1] (setting [3]) lay within 100 to 1000 nM; in assay [2] (setting [4]) it was 3000 to 30000 nM.
Consider `N#C[C@@H]1CN(C(=O)[C@@H]2CC[C@@H]3CCCC[C@H](NC(=O)c4cc5cc([C@H](F)P(=O)(O)O)ccc5s4)C(=O)N32)C[C@H]1c1ccccc1` (single isomer, unassigned) [Compound 18, ((2-(((3S,6S,10aS)-3-((3S,4R or 3R,4S)-3-cyano-4-phenylpyrrolidine-1-carbonyl)-5-oxodecahydropyrrolo [1,2-a]azocin-6-yl)carbamoyl)benzo[b]thiophen-5-yl)fluoromethyl) phosphonic acid], for which the IC50 was 1000 to 10000 nM in assay [1] (setting [5]) and not above 300 nM in assay [2] (setting [6]).
On to `CC[C@@H]1CC[C@H](NC(=O)c2cc3cc(C(F)P(=O)(O)O)ccc3s2)C(=O)N2[C@H](CC[C@H]2C(=O)N2CC(c3cnccc3OC)C2)C1` (stereo partly drawn) [Compound 210, ((2-(((3S,6S,9R,10aR)-9-ethyl-3-(3-(4-methoxypyridin-3-yl)azetidine-1-carbonyl)-5-oxodecahydropyrrolo[1,2-a]azocin-6-yl)carbamoyl)benzo[b]thiophen-5-yl)fluoromethyl)phosphonic acid], for which the values for the IC50 in assay [1] (setting [3]) and in assay [2] (setting [4]) were less than 100 nM and 3000 to 30000 nM, respectively.
For `N#Cc1cccc(C2CN(C(=O)[C@@H]3CC[C@@H]4CCC[C@H](NC(=O)c5cc6cc(C(F)(F)P(=O)(O)O)ccc6s5)C(=O)N43)C2)n1` [Compound 811, ((2-(((3S,6S,9aS)-3-(3-(6-cyanopyridin-2-yl)azetidine-1-carbonyl)-5-oxooctahydro-1H-pyrrolo[1,2-a]azepin-6-yl)carbamoyl)benzo [b]thiophen-5-yl)difluoromethyl) phosphonic acid], in that order: less than 100 nM and 300 to 3000 nM.
As for `N#C[C@H]1CN(C(=O)[C@@H]2CC[C@@H]3CCCC[C@H](NC(=O)c4cc5cc(CP(=O)(O)O)ccc5s4)C(=O)N32)C[C@@H]1c1ccccc1` (single isomer, unassigned) [Compound 90, ((2-(((3S,6S,10aS)-3-((3R,4S or 3S,4R)-3-cyano-4-phenylpyrrolidine-1-carbonyl)-5-oxodecahydropyrrolo [1,2-a]azocin-6-yl)carbamoyl)benzo[b]thiophen-5-yl)methyl) phosphonic acid], the IC50 was more than 10000 nM in assay [1] (setting [5]) and 300 to 3000 nM in assay [2] (STAT6 250 nM, probe 5-FAM-ApYKPFQDLI-NH2 2 nM, read-out: STAT6 (FP assay IC50)).
For the compound `O=C(N[C@H]1CCC[C@H]2CC[C@@H](C(=O)N3CC(N4CCOCC4)C3)N2C1=O)c1cc2cc(C(F)(F)P(=O)(O)O)ccc2s1` [Compound 34, (difluoro(2-(((3S,6S,9aS)-3-(3-morpholino-azetidine-1-carbonyl)-5-oxooctahydro-1H-pyrrolo[1,2-a]azepin-6-yl)carbamoyl)benzo[b]thiophen-5-yl)methyl) phosphonic acid], the IC50 in assay [1] (setting [5]) is 100 to 1000 nM; in assay [2] (setting [6]) it was 3000 to 30000 nM.
`N#C[C@H]1CN(C(=O)[C@@H]2CC[C@@H]3CCCC[C@H](NC(=O)c4cc5cc(CP(=O)(O)O)ccc5s4)C(=O)N32)C[C@@H]1c1cc[nH]c(=O)c1` (single isomer, unassigned) [Compound 878]: the IC50 in assay [1] (setting [3]) lay in the range of 1000 to 10000 nM; in assay [2] (setting [4]) it was 300 to 3000 nM.
For `O=C(N[C@H]1CCCC[C@H]2CC[C@@H](C(=O)N3CC(c4cnccc4-c4ccccc4)C3)N2C1=O)c1cc2cc(C(F)(F)P(=O)(O)O)ccc2s1` [Compound 516, (difluoro(2-(((3S,6S,10aS)-5-oxo-3-(3-(4-phenylpyridin-3-yl)azetidine-1-carbonyl)decahydropyrrolo[1,2-a]azocin-6-yl)carbamoyl)benzo[b]thiophen-5-yl)methyl)phosphonic acid], the IC50 is less than 100 nM in assay [1] (setting [3]) and 300 to 3000 nM in assay [2] (setting [4]).
As to `Cn1ccc([C@@H]2CN(C(=O)[C@@H]3CC[C@@H]4CCC[C@H](NC(=O)c5cc6cc([C@@H](F)P(=O)(O)O)ccc6s5)C(=O)N43)C3(CC3)C2)cc1=O` [Compound 831, ((S)-fluoro(2-(((3S,6S,9aS)-3-((R)-6-(1-methyl-2-oxo-1,2-dihydropyridin-4-yl)-4-azaspiro[2.4]heptane-4-carbonyl)-5-oxooctahydro-1H-pyrrolo[1,2-a]azepin-6-yl)carbamoyl)benzo [b]thiophen-5-yl)methyl) phosphonic acid], the IC50 in assay [1] (setting [3]) is 1000 to 10000 nM; in assay [2] (setting [4]), 300 to 3000 nM.
With `Cn1nccc1N1CC[C@@H](NC(=O)[C@@H]2CC[C@@H]3CCCC[C@H](NC(=O)c4cc5cc(C(F)P(=O)(O)O)ccc5s4)C(=O)N32)C1` (stereo partly drawn) [Compound 542, (fluoro(2-(((3S,6S,10aS)-3-(((R)-1-(1-methyl-1H-pyrazol-5-yl)pyrrolidin-3-yl)carbamoyl)-5-oxodecahydropyrrolo[1,2-a]azocin-6-yl)carbamoyl)benzo[b]thiophen-5-yl)methyl)phosphonic acid], the figures for the IC50 in assay [1] (setting [3]) and in assay [2] (setting [4]) were 1000 to 10000 nM and 3000 to 30000 nM, respectively.
`CC[C@H]1CC[C@H](NC(=O)c2cc3cc(C(F)P(=O)(O)O)ccc3s2)C(=O)N2[C@H](CC[C@H]2C(=O)N2C[C@@H](C#N)[C@H](c3ccccc3)C2)C1` (single isomer, unassigned) [Compound 237]: the IC50 in assay [1] (setting [3]) is 1000 to 10000 nM; in assay [2] (setting [4]) it was not above 300 nM.
`C[C@]1(O)CC[C@H](NC(=O)c2cc3cc(C(F)(F)P(=O)(O)O)ccc3s2)C(=O)N2[C@H](CC[C@H]2C(=O)N2CC(C(=O)N3CCOCC3)C2)C1` [Compound 13, (difluoro(2-(((3S,6S,9S,10aR)-9-hydroxy-9-methyl-3-(3-(morpholine-4-carbonyl)azetidine-1-carbonyl)-5-oxodecahydropyrrolo [1,2-a]azocin-6-yl)carbamoyl)benzo [b]thiophen-5-yl)methyl) phosphonic acid]: the figures for the IC50 in assay [1] (setting [5]) and in assay [2] (setting [6]) were less than 100 nM and 3000 to 30000 nM, respectively.
In the case of `C[C@H]1COCCN1c1ccncc1C1CN(C(=O)[C@@H]2CC[C@@H]3CCC[C@H](NC(=O)c4cc5cc(CP(=O)(O)O)ccc5s4)C(=O)N32)C1` [Compound 679, ((2-(((3S,6S,9aS)-3-(3-(4-((S)-3-methylmorpholino)pyridin-3-yl)azetidine-1-carbonyl)-5-oxooctahydro-1H-pyrrolo[1,2-a]azepin-6-yl)carbamoyl)benzo [b]thiophen-5-yl)methyl) phosphonic acid], the IC50 in assay [1] (setting [3]) was less than 100 nM; in assay [2] (setting [4]), 3000 to 30000 nM.
Take `O=C(N[C@H]1CCCCC[C@H]2[C@H](O)C[C@@H](C(=O)N3CC(C(=O)N4CCOCC4)C3)N2C1=O)c1cc2cc(C(F)(F)P(=O)(O)O)ccc2s1` [Compound 77, (difluoro(2-(((1R,3S,6S, 11aS)-1-hydroxy-3-(3-(morpholine-4-carbonyl)azetidine-1-carbonyl)-5-oxodecahydro-1H-pyrrolo[1,2-a]azonin-6-yl)carbamoyl)benzo[b]thiophen-5-yl)methyl) phosphonic acid]: the half-inhibitory concentration (IC50) in assay [1] (setting [5]) lay within 100 to 1000 nM; in assay [2] (setting [6]), 3000 to 30000 nM.
In the case of `COc1cncc([C@@H]2CN(C(=O)[C@@H]3CC[C@@H]4CCC[C@H](NC(=O)c5cc6cc([C@H](F)P(=O)(O)O)ccc6s5)C(=O)N43)C3(CC3)[C@H]2C#N)c1` (single isomer, unassigned) [Compound 843], the figures for the IC50 in assay [1] (setting [3]) and in assay [2] (setting [4]) were 1000 to 10000 nM and 300 to 3000 nM, respectively.
With `CCC[C@@H]1CC[C@H](NC(=O)c2cc3cc(C(F)P(=O)(O)O)ccc3s2)C(=O)N2[C@H](CC[C@H]2C(=O)N2C[C@@H](C#N)[C@H](c3ccccc3)C2)C1` (single isomer, unassigned) [Compound 239], the figures for the IC50 in assay [1] (setting [3]) and in assay [2] (setting [4]) were 1000 to 10000 nM and not above 300 nM, respectively.
As for `O=C(N[C@H]1CCC[C@H]2CC[C@@H](C(=O)N3CC(c4ccccc4O)C3)N2C1=O)c1cc2cc(C(F)P(=O)(O)O)ccc2s1` (stereo partly drawn) [Compound 608, (fluoro(2-(((3S,6S,9aS)-3-(3-(2-hydroxyphenyl)azetidine-1-carbonyl)-5-oxooctahydro-1H-pyrrolo[1,2-a]azepin-6-yl)carbamoyl)benzo [b]thiophen-5-yl)methyl) phosphonic acid], the results for the IC50 in assay [1] (setting [3]) and in assay [2] (setting [4]) were less than 100 nM and 300 to 3000 nM, respectively.
